Test results as given in a melting point compilation (Tetko et al.; mined from patent text by program, amines drawn as free bases though some values may be those of a salt).

**Q.** With `Cc1cc(-c2nc3cccnn3c2-c2ccnc(NC(=O)c3ccccn3)c2)ccc1F` as the compound, how does the melting point read?
**A.** 234 to 235 °C

**Q.** With `CCOC(=O)C1=C(COCCNc2nc(C(C)=O)c[nH]2)NC(C)=C(C(=O)OC)C1c1cccc(Cl)c1Cl` (stereo not given) as the compound, how does the melting point read?
**A.** 177 °C

**Q.** With `CCOCc1nc2c(N)nc3cccnc3c2n1CCCC(N)=O` as the compound, how does the melting point read?
**A.** 231 to 232 °C

**Q.** For `O=C(O)c1ccc(C(=O)NOCC2CCc3ccccc3C2)cc1` (stereo not given), which melting point is on record?
**A.** 203 to 206 °C

**Q.** With `CC1CCN(c2ccnc(NC(=O)NCc3ccccn3)c2)C1=O` (stereo not given) as the compound, how does the melting point read?
**A.** 190 to 191 °C

**Q.** For `Cc1ccc(-c2ccc3c(c2)C=C(C(=O)Nc2ccc(CNC4CCCCC4)cc2)CCO3)cc1`, which melting point is on record?
**A.** 183 to 184 °C

**Q.** Which melting point does the source give for `Fc1cc(CC2(Cc3ccnc(F)c3)c3ccccc3-c3cccnc32)ccn1` here?
**A.** 128 to 130 °C

**Q.** With `CC(C)(C)OC(=O)N1CCCC[C@H]1C(OC(=O)Nc1ccc2[nH]ncc2c1)c1cccc(C(=O)O)c1` (stereo not given in full) as the compound, how does the melting point read?
**A.** 178 °C

**Q.** Which melting point does the source give for `CC(=O)NC1CCN(c2ncc3ncnc(Nc4ccc(F)c(Cl)c4)c3n2)CC1` here?
**A.** 263 to 265 °C

**Q.** For `CCC(CC)Nc1c([N+](=O)[O-])cc(C(C)C)c(CSC#N)c1[N+](=O)[O-]`, which melting point is on record?
**A.** 68 to 70 °C

**Q.** With `c1cc(-c2cnco2)cc(-c2ncc(-c3cccc(-c4cnc(-c5cccc(-c6cnco6)c5)o4)n3)o2)c1` as the compound, how does the melting point read?
**A.** 254 to 256 °C

**Q.** For `O=C(Cn1c(-c2ccc(Cl)cc2)nc2cccnc21)N1CCCCC1`, which melting point is on record?
**A.** 176 to 178 °C

**Q.** Which melting point does the source give for `O=CNc1ccccc1C(=O)Nc1nnn[nH]1` here?
**A.** 247 to 248 °C

**Q.** For `CCCCc1ccc2nc(Cl)c(S(N)(=O)=O)n2n1`, which melting point is on record?
**A.** 166 °C

**Q.** For `CC(C)(CO)COc1ccc(NC(=O)c2cc3ccccc3s2)cc1C#N`, which melting point is on record?
**A.** 188 to 189 °C

**Q.** For `CCC1(CC)OC(=O)C(Cn2cncn2)(c2ccc(Cl)cc2)O1` (stereo not given), which melting point is on record?
**A.** 105 to 108 °C

**Q.** Which melting point does the source give for `BrCc1ccc(OCC(c2ccccc2)c2ccccc2)cc1` here?
**A.** 70 to 73 °C

**Q.** Which melting point does the source give for `CC1(C)C=Cc2c(c3ccccc3[nH]c2=O)O1` here?
**A.** 174 to 177 °C

**Q.** For `CN(C)C(=N[N+](=O)[O-])NCc1cnc(Cl)s1`, which melting point is on record?
**A.** 155 to 160 °C

**Q.** For `CS(=O)(=O)c1ccc(-c2nn(CCc3ccccc3)c(C(F)(F)F)c2-c2ccc(F)cc2)cc1`, which melting point is on record?
**A.** 132 to 135 °C

**Q.** Which melting point does the source give for `CC(=O)Nc1ccc(OCC2CO2)c(-c2nnco2)c1` (stereo not given) here?
**A.** 173 to 175 °C

**Q.** For `O=C(O)C1C=CCn2c(=O)n(CO)c(=O)n21` (stereo not given), which melting point is on record?
**A.** 175 to 178 °C

**Q.** With `Cc1ccc(Cc2cnc(NCCCCc3ncc(I)cc3C)[nH]c2=O)cn1` as the compound, how does the melting point read?
**A.** 160 to 162 °C

**Q.** For `CCOC1=C(C#N)C(c2ccccc2)=C2C(=O)N(CC)C(c3ccccc3)=C12`, which melting point is on record?
**A.** 200 to 202 °C

**Q.** For `COC(=O)c1ccc(Cl)cc1NC(=O)CSc1cccc(Br)c1`, which melting point is on record?
**A.** 89 to 90 °C

**Q.** For `CCc1nc(N)nc(N)c1-c1ccc(Cl)c(N=NN(CCO)C(C)(C)C)c1`, which melting point is on record?
**A.** 224 to 225 °C

**Q.** Which melting point does the source give for `C=C(c1c(C)n(CC)c2ccccc12)c1c(C)n(CC)c2ccccc12` here?
**A.** 179 to 182 °C

**Q.** For `CCn1c(NC=O)nc(N2CCc3ccccc3CC2)c(C#N)c1=O`, which melting point is on record?
**A.** > 200 °C

**Q.** For `CC(O)c1ccc(-c2ccc(S(C)(=O)=O)cc2)o1` (stereo not given), which melting point is on record?
**A.** 118 to 120 °C

**Q.** For `CCCCN(c1cccc(-c2ccnc3c([N+](=O)[O-])cnn23)c1)S(=O)(=O)c1ccccc1`, which melting point is on record?
**A.** 159 to 160 °C

**Q.** For `COc1cccc(OC(=O)N2CCCC2=O)c1`, which melting point is on record?
**A.** 45 to 47 °C

**Q.** With `COc1ccc(CN(CCN(C)CCCCCCNC(=NCCCOc2cccc(CN3CCCCC3)c2)NC#N)c2ccccn2)cc1` as the compound, how does the melting point read?
**A.** 79 °C

**Q.** With `COC(=O)C(Cc1ccccc1)Oc1ccc2cc(-c3cnc(-c4cn(Cc5ccccc5)c5ccccc45)o3)ccc2c1` (stereo not given) as the compound, how does the melting point read?
**A.** 188 to 190 °C

**Q.** Which melting point does the source give for `CC(=O)OCC1OC(n2cc(F)c(=O)[nH]c2=O)CC1OC(C)=O` (stereo not given) here?
**A.** 151 °C

**Q.** With `Cc1cccc(S(=O)(=O)n2cccn2)c1C#N` as the compound, how does the melting point read?
**A.** 99 to 104 °C

**Q.** Which melting point does the source give for `O=C1NCCCCC1(Br)Br` here?
**A.** 156 to 159 °C

**Q.** For `COC(=O)Cn1c(=O)[nH]c(=O)n(-c2cc(Oc3ccc(C(F)(F)F)c(Cl)c3)ccc2[N+](=O)[O-])c1=O`, which melting point is on record?
**A.** 166 to 167 °C

**Q.** For `COc1cc(C(=O)O)ccc1Cc1cn(C)c2ccc(C(=O)NCC3CCCC3)cc12`, which melting point is on record?
**A.** 237 to 239 °C

**Q.** Which melting point does the source give for `O=C1NCN(c2ccccc2)C12CCN(CC1=Cc3ccccc3CC1)CC2` here?
**A.** 205 to 206 °C

**Q.** With `O=c1[nH]c2cc(-n3cnc4ccccc43)c([N+](=O)[O-])cc2[nH]c1=O` as the compound, how does the melting point read?
**A.** > 300 °C

**Q.** For `Cc1nn(C)c2nc3n(c(=O)c12)CCS3`, which melting point is on record?
**A.** 229 to 230 °C

**Q.** Which melting point does the source give for `CCOC(=O)c1cn([C@@H](C)COS(C)(=O)=O)c2c(F)c(-c3cc(C)nc(C)c3)c(F)cc2c1=O` here?
**A.** 180 to 183 °C

**Q.** Which melting point does the source give for `CCCCOC(=O)c1ccc(OC(=O)C(=O)Oc2ccc(C(=O)OCCCC)cc2)cc1` here?
**A.** 100 to 102 °C

**Q.** Which melting point does the source give for `COC(=O)c1c(C(=O)OC)c(-c2ccc(Cl)cc2)n2c1Cc1ccccc1C2` here?
**A.** 164 to 166 °C

**Q.** Which melting point does the source give for `O=S(=O)(NCCc1ccccc1)c1cccc(-c2cc(-c3nc(-c4ccc(C(F)(F)F)cc4)cc(C(F)(F)F)n3)ccn2)c1` here?
**A.** 201 °C

**Q.** For `O=C(O)CC1CCC(N2CCC(CNc3ccncc3)CC2)CC1` (stereo not given), which melting point is on record?
**A.** 260 °C

**Q.** Which melting point does the source give for `COC1CC(NC(=O)C(F)(F)F)C(OC)C(C)O1` (stereo not given) here?
**A.** 55 to 60 °C

**Q.** Which melting point does the source give for `c1ccc(Cc2c[nH]c3ccccc23)cc1` here?
**A.** 108 to 110 °C

**Q.** With `COc1cccc(C(=O)Nc2ccc(N3CCN(Cc4cccc(C#N)c4)CC3)cc2)c1OCc1ccc(C(F)(F)F)cc1` as the compound, how does the melting point read?
**A.** 118 to 120 °C

**Q.** For `CCOCc1nc2cnc3cc(Br)cnc3c2n1CC(C)(C)F`, which melting point is on record?
**A.** 127 to 128 °C
